# Laboratory results taken from ChEMBL document CHEMBL3885881, “DrugMatrix”.
# Species: Rattus norvegicus
# Test: DrugMatrix - Regimen: Daily Repeat
# Format: toxicity, organism-based, Sprague-Dawley
# Parameters: regimen Daily Repeat, gender Male, age 6-8 weeks
# Conditions: in vivo, sc, 0 mg/kg, route subcutaneous, dose level Control, […]; for ABSOLUTE BASOPHIL / ABSOLUTE EOSINOPHIL / ABSOLUTE LYMPHOCYTE / ABSOLUTE MONOCYTE / ABSOLUTE SEGMENTED NEUTROPHIL / BASOPHIL / EOSINOPHIL / ERYTHROCYTE COUNT / HEMATOCRIT / HEMOGLOBIN / LEUKOCYTE COUNT / LYMPHOCYTE / MEAN CORPUSCULAR HEMOGLOBIN / MEAN CORPUSCULAR HEMOGLOBIN CONCENTRATION / MEAN CORPUSCULAR VOLUME / MONOCYTE / NEUTROPHIL / NUCLEATED RED BLOOD CELLS / PLATELET COUNT: tissue Blood; for ALANINE AMINOTRANSFERASE / ALBUMIN / ALKALINE PHOSPHATASE / ASPARTATE AMINOTRANSFERASE / BLOOD UREA NITROGEN / CARBON DIOXIDE / CHLORIDE / CHOLESTEROL / CREATINE PHOSPHOKINASE / CREATININE / GLUCOSE / LACTATE DEHYDROGENASE / LIPASE / PHOSPHORUS / POTASSIUM / SODIUM / TOTAL BILIRUBIN / TOTAL PROTEIN / URIC ACID: tissue Plasma
structure (smiles),measurement,setting,value
Cc1cc(O)cc(C)c1Cl [CHLOROXYLENOL],ABSOLUTE BASOPHIL,"72 h, time 3 day",0 CELLS/uL
same,ABSOLUTE EOSINOPHIL,"72 h, time 3 day",92.33 CELLS/uL
same,ABSOLUTE LYMPHOCYTE,"72 h, time 3 day",12247.5 CELLS/uL
same,ABSOLUTE MONOCYTE,"72 h, time 3 day",389.67 CELLS/uL
same,ABSOLUTE SEGMENTED NEUTROPHIL,"72 h, time 3 day",1320.5 CELLS/uL
same,BASOPHIL,"72 h, time 3 day",0%
same,EOSINOPHIL,"72 h, time 3 day",0.67%
same,ERYTHROCYTE COUNT,"72 h, time 3 day",5.45 x10E6/uL
same,HEMATOCRIT,"72 h, time 3 day",34.85%
same,HEMOGLOBIN,"72 h, time 3 day",12.97 G/DL
same,LEUKOCYTE COUNT,"72 h, time 3 day",14.05 x10E3/uL
same,LYMPHOCYTE,"72 h, time 3 day",87.33%
same,MEAN CORPUSCULAR HEMOGLOBIN,"72 h, time 3 day",23.78 pg
same,MEAN CORPUSCULAR HEMOGLOBIN CONCENTRATION,"72 h, time 3 day",37.22 G/DL
same,MEAN CORPUSCULAR VOLUME,"72 h, time 3 day",63.93 fL
same,MONOCYTE,"72 h, time 3 day",2.67%
same,NEUTROPHIL,"72 h, time 3 day",9.33%
same,NUCLEATED RED BLOOD CELLS,"72 h, time 3 day",0 /100WBC
same,PLATELET COUNT,"72 h, time 3 day",1174 x10E3/uL
same,ALANINE AMINOTRANSFERASE,"72 h, time 3 day",48.83 u/L
same,ALBUMIN,"72 h, time 3 day",4.23 G/DL
same,ALKALINE PHOSPHATASE,"72 h, time 3 day",351.5 u/L
same,ASPARTATE AMINOTRANSFERASE,"72 h, time 3 day",90 u/L
same,BLOOD UREA NITROGEN,"72 h, time 3 day",15.33 mg/dL
same,CARBON DIOXIDE,"72 h, time 3 day",23 mmol/L
same,CHLORIDE,"72 h, time 3 day",103.5 MEQ/L
same,CHOLESTEROL,"72 h, time 3 day",70.5 mg/dL
same,CREATINE PHOSPHOKINASE,"72 h, time 3 day",651.83 u/L
same,CREATININE,"72 h, time 3 day",0.22 mg/dL
same,GLUCOSE,"72 h, time 3 day",180.67 mg/dL
same,LACTATE DEHYDROGENASE,"72 h, time 3 day",165 u/L
same,LIPASE,"72 h, time 3 day",9.33 u/L
same,PHOSPHORUS,"72 h, time 3 day",12.03 mg/dL
same,POTASSIUM,"72 h, time 3 day",6.17 MEQ/L
same,SODIUM,"72 h, time 3 day",142.62 MEQ/L
same,TOTAL BILIRUBIN,"72 h, time 3 day",0.2 mg/dL
same,TOTAL PROTEIN,"72 h, time 3 day",5.73 G/DL
same,URIC ACID,"72 h, time 3 day",1.77 mg/dL
same,ABSOLUTE BASOPHIL,"120 h, time 5 day",0 CELLS/uL
same,ABSOLUTE EOSINOPHIL,"120 h, time 5 day",0 CELLS/uL
same,ABSOLUTE LYMPHOCYTE,"120 h, time 5 day",12736.67 CELLS/uL
same,ABSOLUTE MONOCYTE,"120 h, time 5 day",253.5 CELLS/uL
same,ABSOLUTE SEGMENTED NEUTROPHIL,"120 h, time 5 day",1193.17 CELLS/uL
same,BASOPHIL,"120 h, time 5 day",0%
same,EOSINOPHIL,"120 h, time 5 day",0%
same,ERYTHROCYTE COUNT,"120 h, time 5 day",5.72 x10E6/uL
same,HEMATOCRIT,"120 h, time 5 day",36.05%
same,HEMOGLOBIN,"120 h, time 5 day",13.62 G/DL
same,LEUKOCYTE COUNT,"120 h, time 5 day",14.18 x10E3/uL
same,LYMPHOCYTE,"120 h, time 5 day",89.33%
same,MEAN CORPUSCULAR HEMOGLOBIN,"120 h, time 5 day",23.83 pg
same,MEAN CORPUSCULAR HEMOGLOBIN CONCENTRATION,"120 h, time 5 day",37.8 G/DL
same,MEAN CORPUSCULAR VOLUME,"120 h, time 5 day",63.05 fL
same,MONOCYTE,"120 h, time 5 day",1.83%
same,NEUTROPHIL,"120 h, time 5 day",8.83%
same,NUCLEATED RED BLOOD CELLS,"120 h, time 5 day",0 /100WBC
same,PLATELET COUNT,"120 h, time 5 day",1322.17 x10E3/uL
same,ALANINE AMINOTRANSFERASE,"120 h, time 5 day",48.83 u/L
same,ALBUMIN,"120 h, time 5 day",4.27 G/DL
same,ALKALINE PHOSPHATASE,"120 h, time 5 day",295.17 u/L
same,ASPARTATE AMINOTRANSFERASE,"120 h, time 5 day",75.83 u/L
same,BLOOD UREA NITROGEN,"120 h, time 5 day",15.5 mg/dL
same,CARBON DIOXIDE,"120 h, time 5 day",30.5 mmol/L
same,CHLORIDE,"120 h, time 5 day",102.33 MEQ/L
same,CHOLESTEROL,"120 h, time 5 day",76.17 mg/dL
same,CREATINE PHOSPHOKINASE,"120 h, time 5 day",205.5 u/L
same,CREATININE,"120 h, time 5 day",0.2 mg/dL
same,GLUCOSE,"120 h, time 5 day",149.67 mg/dL
same,LACTATE DEHYDROGENASE,"120 h, time 5 day",124.5 u/L
same,LIPASE,"120 h, time 5 day",10 u/L
same,PHOSPHORUS,"120 h, time 5 day",10.93 mg/dL
same,POTASSIUM,"120 h, time 5 day",6.59 MEQ/L
same,SODIUM,"120 h, time 5 day",143.1 MEQ/L
same,TOTAL BILIRUBIN,"120 h, time 5 day",0.2 mg/dL
same,TOTAL PROTEIN,"120 h, time 5 day",6.05 G/DL
same,URIC ACID,"120 h, time 5 day",1.45 mg/dL
